The source of these data is paper PMC8227856, “Antibacterial Activity of a Promising Antibacterial Agent: 22-(4-(2-(4-Nitrophenyl-piperazin-1-yl)-acetyl)-piperazin-1-yl)-22-deoxypleuromutilin” (Molecules, 2021).

The test system of data set [1] is MRSA ATCC 43300. Briefly: Neutropenic mouse systemic infection model. Type of data set: in vivo, Staphylococcus aureus. Conditions: 30 mg/kg i.v. Here is the method: The survival rate of mice was determined by the systemic infection model according to the literature with some modifications. Neutropenic mice (10 per group, half male and half female) were injected with 0.5 mL MRSA inoculum of 10^6 CFU/mL (100% minimum lethal dose) intraperitoneally. One hour after infection, the mice were administered with NPDM or tiamulin intravenously at a dose of 30 mg/kg body weight. Tiamulin was used as a reference drug. The survival of the mice was recorded for 7 days.

Data set [2] in a line: Pharmacokinetic study in mice, plasma LC-MS/MS. The data set is classed as in vivo. Here is the method:
Adult female mice fasted for 12 h before the experiment. The NPDM was administered intravenously at the dose of 10 mg/kg. Approximately 0.2 mL blood samples were collected from the ocular venous plexus at 0.083, 0.167, 0.25, 0.5, 0.75, 1, 2, 4, 6, 8, 12, and 24 h after administration. All samples were centrifuged at 3000 rpm for 10 min, then the plasma samples were separated and stored at −20 °C. After thawing at room temperature, samples were mixed with acetonitrile (HPLC grade, sample:acetonitrile = 1:4, v/v) and centrifuged at 12,000 rpm for 10 min. Then, the supernatant was purified by the 0.22 μm cellulose membrane filter and transferred into an autosampler vial for HPLC-MS/MS analysis. Information of the equipment and analysis conditions are available in the Supplemental Materials. The pharmacokinetic parameters of the NPDM were calculated using the non-compartmental model in WinNonlin 5.2 software (Pharsight, Mountain View, CA, USA).

For data set [3], the system named is S. aureus ATCC 29213. As to the kind of experiment: MIC, broth dilution micro-method. The data set is classed as cell-based. Conditions: Staphylococcus aureus, ATCC29213, 24 h, MHB. As to the method: (§1) The MICs of NPDM against MRSA were determined by the broth dilution micro-method. Briefly, the stock solution of NPDM and the reference drug tiamulin were diluted by a two-fold serial dilution method with MHB in a 96-well plate to provide concentration ranges of 16~0.032 μg/mL. Then 100 μL of bacterial suspensions in log phase were diluted to 10^6 CFU/mL with MHB and were added to each well to make the final concentrations of the test compounds ranging from 8 to 0.016 μg/mL. The bacterial suspension (no drugs but solvent) was used as the positive control and MHB (no cultures) was used as the negative control. […] The MICs assay was carried out in triplicate.
Background: In broth dilution the organism is exposed to a series of concentrations in liquid medium.

For data set [4], the system named is S. aureus AD3 (clinical strain). Briefly: MIC, broth dilution micro-method. Conditions: Staphylococcus aureus, 24 h, MHB. Type of data set: cell-based. As to the method:
as §1

For data set [5], the system named is S. aureus 144 (clinical strain). As to the kind of experiment: MIC, broth dilution micro-method. The data set is classed as cell-based. Conditions: Staphylococcus aureus, 24 h, MHB. As to the method: as §1
Data set [6] has as its system MRSA ATCC 43300. Briefly: MIC, broth dilution micro-method. The data set is classed as cell-based. Conditions: Staphylococcus aureus, 24 h, MHB. Here is the method:
as §1

Data set [7] concerns S. aureus ATCC 29213. As to the kind of experiment: Neutropenic mouse thigh infection model. Type of data set: in vivo, Staphylococcus aureus. Conditions: 20 mg/kg i.v., neutropenic mice. Here is the method: (§2) The mouse thigh infection model was performed as described in the literature with minor modifications. Briefly, female mice had induced neutropenia (neutrophil count ≤ 100/mm^3) by administered intraperitoneally cyclophosphamide on day 4 (150 mg/kg) and day 1 (100 mg/kg) before the experiment. A bacterial suspension of 0.1 mL (MRSA or S. aureus) containing approximately 10^7 CFU/mL microorganism was injected into the posterior thigh of mice to establish infection. Two hours after infection, mice were intravenously injected with NPDM or tiamulin at 20 mg/kg. After 24 h, thighs (six per group) were collected upon euthanasia. Then, thighs were weighed and homogenized with sterile saline. Tissue homogenate was continuously diluted 10-fold and plated on MHA plates for colony counts. SPSS 19 software was used for statistical analysis and t-tests.

The test system of data set [8] is MRSA ATCC 43300. Briefly: Neutropenic mouse thigh infection model. Type of data set: in vivo, Staphylococcus aureus. Conditions: 20 mg/kg i.v., neutropenic mice. As to the method:
as §2

[9] abbreviates: female, mouse, plasma, iv, 10 mg/kg i.v., non-compartmental.

≈ marks a conversion by molar mass, not a printed value. Where two headings read alike, the source gives them in different places.

One may read the MRT as the average time that molecules of a dose stay in the body. What is called clearance is the volume of plasma or blood freed of the substance per unit of time. Lower therefore signals a low capacity for elimination. The term AUC(0-inf) denotes the area under the concentration-time curve extrapolated to infinity. A lower AUC(0-inf) goes with less exposure. By AUC(0-t) is commonly meant the area under the concentration-time curve up to a stated or last time point. Low values mean less exposure, high ones more exposure. One may read the Cmax as the highest concentration seen after dosing. The Tmax is the time at which the peak concentration occurs. One may read the half-life as the time in which the quantity being followed falls by half. Lower therefore signals fast loss. For orientation: MIC means the lowest concentration that inhibits growth of the organism.

As to `C=C[C@]1(C)C[C@@H](OC(=O)CN2CCN(C(=O)CN3CCN(c4ccc([N+](=O)[O-])cc4)CC3)CC2)[C@]2(C)[C@H](C)CC[C@]3(CCC(=O)[C@H]32)[C@@H](C)[C@@H]1O` [NPDM, 22-(4-(2-(4-nitrophenyl-piperazin-1-yl)-acetyl)-piperazin-1-yl)-22-deoxypleuromutilin], the “Survival rate at the endpoint” value in data set [1] (lethal MRSA challenge, 7 days, neutropenic mice) was 70%. In data set [1] (difference vs tiamulin), the “Survival rate higher than that of the tiamulin-treated group” value turned out to be 20%. Besides, the MRT in data set [2] (10 mg/kg i.v., non-compartmental, 10 mg/kg) worked out at 18.6 ± 3 min; in data set [2] (female, mouse, plasma, iv, 10 mg/kg, 10 mg/kg i.v., non-compartmental, read-out: MRT), 21.6 min. In data set [2] (female, mouse, plasma, 10 mg/kg, single intravenous administration), the clearance was 46 mL/min/kg. The same compound showed an AUC(0-inf) in data set [2] (setting [9]) of 3660 ± 370 ng·h/mL. This compound displayed an AUC(0-t) in data set [2] (setting [9]) of 3650 ± 400 ng·h/mL. Also, in data set [2] (setting [9]), the Cmax is 8690 ± 740 ng/mL. Further, in data set [2] (setting [9]), the Tmax stood at 4.98 min. The half-life in data set [2] (setting [9]) was 13.2 ± 2.4 min. Also, the MIC in data set [3], in data set [4], in data set [5] and in data set [6] was 0.125 µg/mL (≈ 0.18 µM) throughout. Further, in data set [7] (24 h after treatment), the “Average amount of S. aureus inoculum in thighs” value was “(1.23 ± 0.51) × 10^8 CFU”. Further, the “Reduction of mean bacterial counts in thighs vs untreated group” value in data set [7] (S. aureus, 24 h) is reported as ~ 0.95 log CFU/mL. In data set [8] (24 h), the “Reduction of mean MRSA counts in thighs vs untreated group” value is ~ 1.61 log CFU/mL. For the same compound, in data set [8] (24 h after treatment), the “Average amount of MRSA inoculum in thighs” value was “(8.16 ± 3.70) × 10^7 CFU”.
